What all share (format): biochemical
One assay has as its target p110α/p85α (Homo sapiens (Human), UniProt P42336). Put plainly: PI 3-Kinase (human) HTRF assay, p110α/p85α. The note with it: read-out: PI3K α IC50. On the technique in general: TR-FRET usually uses a lanthanide donor and a delayed reading to cut background.
A further assay concerns the target p110β/p85α (Homo sapiens (Human), UniProt P42338). Kind of assay: PI 3-Kinase (human) HTRF assay, p110β/p85α. The note with it: read-out: PI3K β IC50.
The next assay addresses p110δ/p85α (Homo sapiens (Human), UniProt O00329). Kind of assay: PI 3-Kinase (human) HTRF assay, p110δ/p85α. The conditions noted are these: read-out: PI3K δ IC50.
The next assay concerns the target p110γ (Homo sapiens (Human), UniProt P48736). Put plainly: PI 3-Kinase (human) HTRF assay, p110γ. The note with it: read-out: PI3K γ IC50.

The structures appear in SMILES notation. pIC50: −log10 of the molar value.

p110γ, sequence (P48736 whole entry): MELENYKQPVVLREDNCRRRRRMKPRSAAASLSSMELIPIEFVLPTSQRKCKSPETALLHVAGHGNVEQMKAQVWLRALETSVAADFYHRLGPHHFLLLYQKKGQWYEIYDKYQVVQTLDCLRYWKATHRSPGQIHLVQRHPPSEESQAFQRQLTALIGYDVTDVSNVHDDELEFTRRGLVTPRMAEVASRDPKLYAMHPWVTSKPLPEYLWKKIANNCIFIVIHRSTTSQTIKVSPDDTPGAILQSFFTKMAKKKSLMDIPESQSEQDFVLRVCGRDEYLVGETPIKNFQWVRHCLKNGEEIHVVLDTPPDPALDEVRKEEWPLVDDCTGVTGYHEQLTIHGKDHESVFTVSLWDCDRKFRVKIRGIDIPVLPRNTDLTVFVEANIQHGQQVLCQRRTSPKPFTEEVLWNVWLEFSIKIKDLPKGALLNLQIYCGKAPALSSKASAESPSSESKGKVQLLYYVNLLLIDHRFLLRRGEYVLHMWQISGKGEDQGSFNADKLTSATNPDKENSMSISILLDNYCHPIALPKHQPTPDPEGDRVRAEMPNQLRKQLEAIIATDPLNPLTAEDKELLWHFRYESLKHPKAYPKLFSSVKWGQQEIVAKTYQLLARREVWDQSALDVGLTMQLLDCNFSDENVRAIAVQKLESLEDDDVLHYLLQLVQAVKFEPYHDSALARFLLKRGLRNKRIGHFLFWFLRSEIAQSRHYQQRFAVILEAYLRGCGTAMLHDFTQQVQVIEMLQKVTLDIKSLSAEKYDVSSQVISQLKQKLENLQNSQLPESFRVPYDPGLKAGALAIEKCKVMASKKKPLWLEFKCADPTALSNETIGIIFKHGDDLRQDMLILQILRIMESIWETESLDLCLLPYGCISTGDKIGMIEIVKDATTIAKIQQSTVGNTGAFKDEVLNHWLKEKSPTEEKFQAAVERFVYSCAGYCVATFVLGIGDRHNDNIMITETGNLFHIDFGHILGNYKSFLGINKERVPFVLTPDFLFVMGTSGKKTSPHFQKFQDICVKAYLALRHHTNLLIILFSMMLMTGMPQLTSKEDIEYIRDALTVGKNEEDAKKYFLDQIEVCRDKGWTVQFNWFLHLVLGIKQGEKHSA
p110β/p85α, sequence (P42338 whole entry): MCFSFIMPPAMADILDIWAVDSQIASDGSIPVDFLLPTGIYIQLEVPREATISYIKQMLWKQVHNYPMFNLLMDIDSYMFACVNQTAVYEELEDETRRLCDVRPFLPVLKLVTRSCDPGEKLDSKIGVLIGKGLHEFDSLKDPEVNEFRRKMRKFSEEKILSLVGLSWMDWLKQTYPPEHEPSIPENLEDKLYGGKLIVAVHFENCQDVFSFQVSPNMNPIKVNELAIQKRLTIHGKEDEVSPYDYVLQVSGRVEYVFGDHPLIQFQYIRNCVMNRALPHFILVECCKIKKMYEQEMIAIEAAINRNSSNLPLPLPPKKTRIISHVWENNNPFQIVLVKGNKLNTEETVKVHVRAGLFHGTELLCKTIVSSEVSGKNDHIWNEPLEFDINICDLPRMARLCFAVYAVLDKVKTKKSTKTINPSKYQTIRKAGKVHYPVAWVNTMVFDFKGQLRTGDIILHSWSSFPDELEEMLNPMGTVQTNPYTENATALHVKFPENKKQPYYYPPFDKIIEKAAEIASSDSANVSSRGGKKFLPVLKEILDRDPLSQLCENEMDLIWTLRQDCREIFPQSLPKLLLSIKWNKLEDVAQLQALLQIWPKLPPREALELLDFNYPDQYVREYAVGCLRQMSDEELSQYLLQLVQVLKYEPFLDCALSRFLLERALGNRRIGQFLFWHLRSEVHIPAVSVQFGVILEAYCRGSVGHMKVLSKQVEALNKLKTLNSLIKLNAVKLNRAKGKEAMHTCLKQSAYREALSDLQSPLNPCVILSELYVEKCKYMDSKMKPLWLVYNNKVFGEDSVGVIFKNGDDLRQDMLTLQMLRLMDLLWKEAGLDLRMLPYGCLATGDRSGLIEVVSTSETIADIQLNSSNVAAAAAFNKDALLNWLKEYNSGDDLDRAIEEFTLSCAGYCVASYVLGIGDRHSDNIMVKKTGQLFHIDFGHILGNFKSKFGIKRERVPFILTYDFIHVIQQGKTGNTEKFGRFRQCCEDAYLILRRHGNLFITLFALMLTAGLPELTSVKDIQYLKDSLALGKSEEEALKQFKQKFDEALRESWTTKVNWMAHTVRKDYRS
p110β/p85α, sequence (P27986 whole entry partner): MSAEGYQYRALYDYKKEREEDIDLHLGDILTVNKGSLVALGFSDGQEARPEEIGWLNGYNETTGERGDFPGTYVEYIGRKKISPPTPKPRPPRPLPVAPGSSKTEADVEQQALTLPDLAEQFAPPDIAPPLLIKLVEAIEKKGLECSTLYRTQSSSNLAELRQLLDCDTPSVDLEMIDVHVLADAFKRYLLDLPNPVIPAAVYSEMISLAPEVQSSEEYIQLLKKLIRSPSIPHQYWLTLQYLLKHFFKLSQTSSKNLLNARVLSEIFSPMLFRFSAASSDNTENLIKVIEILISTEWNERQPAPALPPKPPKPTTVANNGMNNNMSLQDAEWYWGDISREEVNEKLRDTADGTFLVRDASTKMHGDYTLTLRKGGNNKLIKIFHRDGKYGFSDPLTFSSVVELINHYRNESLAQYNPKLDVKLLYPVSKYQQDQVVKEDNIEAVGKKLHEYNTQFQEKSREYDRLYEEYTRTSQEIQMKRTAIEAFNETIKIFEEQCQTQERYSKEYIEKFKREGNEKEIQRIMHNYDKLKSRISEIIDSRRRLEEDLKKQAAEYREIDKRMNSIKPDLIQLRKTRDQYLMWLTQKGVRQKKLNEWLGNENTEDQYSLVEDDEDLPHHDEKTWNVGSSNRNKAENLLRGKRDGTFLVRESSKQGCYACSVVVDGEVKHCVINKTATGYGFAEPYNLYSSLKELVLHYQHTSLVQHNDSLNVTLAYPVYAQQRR
p110δ/p85α, sequence (O00329 whole entry): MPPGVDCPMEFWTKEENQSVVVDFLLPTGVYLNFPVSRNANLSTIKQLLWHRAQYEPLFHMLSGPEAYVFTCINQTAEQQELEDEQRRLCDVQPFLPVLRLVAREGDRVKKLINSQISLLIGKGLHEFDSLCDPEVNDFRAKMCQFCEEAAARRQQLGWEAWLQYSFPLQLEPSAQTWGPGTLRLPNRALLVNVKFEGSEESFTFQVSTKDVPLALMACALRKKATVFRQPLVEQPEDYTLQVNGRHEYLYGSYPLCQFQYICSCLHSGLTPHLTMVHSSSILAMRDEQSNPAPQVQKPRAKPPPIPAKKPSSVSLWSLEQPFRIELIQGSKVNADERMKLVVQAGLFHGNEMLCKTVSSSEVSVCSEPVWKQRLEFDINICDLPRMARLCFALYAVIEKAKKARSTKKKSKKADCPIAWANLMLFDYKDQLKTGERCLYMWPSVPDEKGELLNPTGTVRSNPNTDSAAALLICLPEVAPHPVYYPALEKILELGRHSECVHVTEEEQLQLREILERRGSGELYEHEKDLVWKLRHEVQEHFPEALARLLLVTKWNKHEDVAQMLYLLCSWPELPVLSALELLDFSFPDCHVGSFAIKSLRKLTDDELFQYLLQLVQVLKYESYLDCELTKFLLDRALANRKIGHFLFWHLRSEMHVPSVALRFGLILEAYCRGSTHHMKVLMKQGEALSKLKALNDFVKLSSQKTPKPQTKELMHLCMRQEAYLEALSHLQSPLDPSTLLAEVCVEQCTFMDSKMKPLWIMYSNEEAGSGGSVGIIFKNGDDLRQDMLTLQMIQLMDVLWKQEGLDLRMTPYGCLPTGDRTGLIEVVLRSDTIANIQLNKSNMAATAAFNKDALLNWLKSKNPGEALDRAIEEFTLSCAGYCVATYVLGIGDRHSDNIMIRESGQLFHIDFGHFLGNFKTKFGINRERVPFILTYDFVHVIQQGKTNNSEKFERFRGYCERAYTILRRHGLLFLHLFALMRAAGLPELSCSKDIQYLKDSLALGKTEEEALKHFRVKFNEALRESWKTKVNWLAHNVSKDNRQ
p110δ/p85α, sequence (P27986 whole entry partner): as the sequence (P27986 whole entry partner) above
p110α/p85α, sequence (P42336 whole entry): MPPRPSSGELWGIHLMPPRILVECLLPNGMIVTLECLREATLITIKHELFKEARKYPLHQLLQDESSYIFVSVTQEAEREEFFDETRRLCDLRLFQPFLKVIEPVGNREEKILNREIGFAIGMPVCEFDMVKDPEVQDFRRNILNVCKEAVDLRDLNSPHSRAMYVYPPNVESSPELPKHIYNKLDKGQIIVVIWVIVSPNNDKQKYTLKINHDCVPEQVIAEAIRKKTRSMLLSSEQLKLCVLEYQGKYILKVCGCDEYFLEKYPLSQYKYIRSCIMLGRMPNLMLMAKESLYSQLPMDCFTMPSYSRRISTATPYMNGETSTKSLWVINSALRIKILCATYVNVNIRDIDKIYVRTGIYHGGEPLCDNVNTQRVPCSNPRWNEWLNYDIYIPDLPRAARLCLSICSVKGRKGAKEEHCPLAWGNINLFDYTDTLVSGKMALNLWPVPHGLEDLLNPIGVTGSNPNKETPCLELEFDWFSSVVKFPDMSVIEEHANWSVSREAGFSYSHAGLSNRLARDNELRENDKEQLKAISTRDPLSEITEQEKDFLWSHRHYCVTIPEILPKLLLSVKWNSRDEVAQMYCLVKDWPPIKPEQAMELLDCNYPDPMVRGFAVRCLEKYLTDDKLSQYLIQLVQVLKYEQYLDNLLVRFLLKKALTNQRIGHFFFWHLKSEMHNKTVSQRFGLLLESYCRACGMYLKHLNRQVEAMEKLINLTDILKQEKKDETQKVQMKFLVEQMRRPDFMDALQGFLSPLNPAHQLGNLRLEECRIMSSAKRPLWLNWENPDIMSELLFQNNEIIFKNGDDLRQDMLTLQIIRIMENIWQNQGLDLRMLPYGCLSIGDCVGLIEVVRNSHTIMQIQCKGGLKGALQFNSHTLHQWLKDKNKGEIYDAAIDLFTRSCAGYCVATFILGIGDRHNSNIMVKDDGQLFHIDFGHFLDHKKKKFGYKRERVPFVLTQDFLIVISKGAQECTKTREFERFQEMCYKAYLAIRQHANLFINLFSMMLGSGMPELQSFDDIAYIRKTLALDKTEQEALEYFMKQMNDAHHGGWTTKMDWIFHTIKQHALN
p110α/p85α, sequence (P27986 whole entry partner): as the sequence (P27986 whole entry partner) above
Method for p110δ/p85α: An exemplary system is PI 3-Kinase (human) HTRF™ Assay from Upstate. […] Briefly, the assay is a time resolved FRET assay that indirectly measures PIP3 product formed by the activity of a PI3-K. The kinase reaction is performed in a microtitre plate (e.g., a 384 well microtitre plate). The total reaction volume is approximately 20 ul per well. In the first step, each well receives 2 ul of test compound in 20% dimethylsulphoxide resulting in a 2% DMSO final concentration. Next, approximately 14.5 ul of a kinase/PIP2 mixture (diluted in 1× reaction buffer) is added per well for a final concentration of 0.25-0.3 ug/ml kinase and 10 μM PIP2. The plate is sealed and incubated for 15 minutes at room temperature. To start the reaction, 3.5 ul of ATP (diluted in 1× reaction buffer) is added per well for a final concentration of 10 μM ATP. The plate is sealed and incubated for 1 hour at room temperature. The reaction is stopped by adding 5 ul of Stop Solution per well and then 5 ul of Detection Mix is added per well. The plate is sealed, incubated for 1 hour at room temperature, and then read on an appropriate plate reader. Data is analyzed and IC50s are generated using GraphPad Prism 5. […] For PI3K α, β, δ, and γ, the nM concentration of inhibitor to reach IC50 is provided.

Broadly, the pIC50 is −log10 of the IC50, conventionally taken in molar units. On to `CN1CCN(c2ccnc3ccc(-c4ccc5oc(N)nc5c4)cc23)CC1` [compound 21], for which the negative-log IC50 (pIC50) is more than 6.00 on p110α/p85α, more than 5.00 on p110β/p85α, more than 5.00 on p110δ/p85α and more than 5.00 on p110γ.

As to `CN1CCN(c2ncnc3ccc(-c4ccc5oc(N)nc5c4)cc23)CC1` [compound 23], the pIC50 on p110α/p85α was more than 7.00; at p110β/p85α, more than 6.00; at p110δ/p85α, more than 5.00; on p110γ it was more than 7.00.

`Nc1nc2cc(-c3ccc4ncnc(NC5CCOCC5)c4c3)ccc2o1` [compound 24]: the pIC50 at p110α/p85α was more than 7.00; on p110β/p85α it was more than 6.00; on p110δ/p85α, more than 7.00; at p110γ, more than 7.00.

As for `Nc1nc2cc(-c3ccc4ncc(-c5cccnc5)n4n3)ccc2o1` [compound 58], the pIC50 at p110α/p85α, on p110β/p85α, on p110δ/p85α and on p110γ was more than 7.00 throughout.

Consider `Nc1nc2cc(-c3ccc4ncc(-c5cn[nH]c5)n4n3)ccc2o1` [compound 59], for which the pIC50 is more than 7.00 on p110α/p85α, more than 7.00 on p110β/p85α, more than 6.00 on p110δ/p85α and more than 7.00 on p110γ.

For the molecule `Nc1nc2cc(-c3cn4c(-c5ccncc5)cnc4cn3)ccc2o1` [compound 68], the negative logarithm of the IC50 (pIC50) is more than 7.00 on p110α/p85α, more than 5.00 on p110β/p85α, more than 5.00 on p110δ/p85α and more than 6.00 on p110γ.

As for `Nc1nc2cc(-c3cn4c(-c5cn[nH]c5)cnc4cn3)ccc2o1` [compound 69], the pIC50 is more than 6.00 on p110α/p85α, more than 5.00 on p110β/p85α, more than 5.00 at p110δ/p85α and more than 6.00 on p110γ.

For `Nc1nc2cc(-c3ccc4nccc(-c5ccncc5)c4c3)ccc2s1` [compound 70], the pIC50 on p110α/p85α, at p110β/p85α, at p110δ/p85α and at p110γ was more than 7.00 throughout.

Turning to `Nc1nc2cc(-c3ccc4ncc(-c5ccncc5)nc4c3)ccc2o1` [compound 71], the pIC50 was more than 7.00 at p110α/p85α, more than 5.00 on p110β/p85α, more than 6.00 at p110δ/p85α and more than 7.00 at p110γ.

For the molecule `Nc1nc2cc(-c3ccc4ncc(-c5cn[nH]c5)nc4c3)ccc2o1` [compound 78], the pIC50 was more than 7.00 at p110α/p85α, more than 6.00 on p110β/p85α, more than 6.00 at p110δ/p85α and more than 7.00 at p110γ.

Regarding `CN1CCC(Nc2cnc3ccc(-c4ccc5oc(N)nc5c4)cc3n2)CC1` [compound 81], the pIC50 on p110α/p85α was more than 7.00; on p110β/p85α, more than 6.00; on p110δ/p85α it was more than 7.00; at p110γ it was more than 6.00.

With `CC(=O)N1CCC(Nc2cnc3ccc(-c4ccc5oc(N)nc5c4)cc3n2)CC1` [compound 82], the pIC50 was more than 7.00 on p110α/p85α, more than 5.00 on p110β/p85α, more than 7.00 at p110δ/p85α and more than 7.00 on p110γ.

Consider `Nc1nc2cc(-c3ccc4ncc(C(=O)NC5CCOCC5)n4c3)ccc2o1` [compound 83], for which the pIC50 was more than 7.00 at p110α/p85α, more than 5.00 at p110β/p85α, more than 7.00 on p110δ/p85α and more than 7.00 on p110γ.

As to `CC(=O)N1CCN(c2cnc3ccc(-c4ccc5oc(N)nc5c4)cc3n2)CC1` [compound 85], the pIC50 on p110α/p85α, on p110β/p85α, on p110δ/p85α and at p110γ was more than 7.00 in each case.

Take `CS(=O)(=O)N1CCN(c2cnc3ccc(-c4ccc5oc(N)nc5c4)cc3n2)CC1` [compound 86]: the negative-log IC50 (pIC50) was more than 7.00 on p110α/p85α, more than 6.00 on p110β/p85α, more than 6.00 on p110δ/p85α and more than 7.00 at p110γ.

With `CS(=O)(=O)N1CCC(Nc2ncnc3ccc(-c4ccc5oc(N)nc5c4)cc23)CC1` [compound 87], the pIC50 at p110α/p85α was more than 7.00; on p110β/p85α, more than 6.00; on p110δ/p85α, more than 7.00; at p110γ, more than 7.00.

Turning to `Nc1nc2cc(-c3ccc4ncnc(NC5CCN(C(=O)C6CC6)CC5)c4c3)ccc2o1` [compound 89], the pIC50 at p110α/p85α is more than 7.00; at p110β/p85α, more than 5.00; on p110δ/p85α, more than 7.00; on p110γ, more than 7.00.

In the case of `Cn1cc(-c2cnc3ccc(-c4ccc5oc(N)nc5c4)cc3n2)cn1` [compound 94], the pIC50 is more than 7.00 at p110α/p85α, more than 6.00 at p110β/p85α, more than 5.00 on p110δ/p85α and more than 7.00 on p110γ.

As for `CS(=O)(=O)N1CCC(Nc2cnc3ccc(-c4ccc5oc(N)nc5c4)cc3n2)CC1` [compound 95], the pIC50 is more than 7.00 at p110α/p85α, more than 5.00 on p110β/p85α, more than 7.00 at p110δ/p85α and more than 7.00 on p110γ.

Take `CC(C)(C#N)c1ccc(Nc2ncnc3ccc(-c4ccc5oc(N)nc5c4)cc23)cc1` [compound 102]: the pIC50 on p110α/p85α is more than 7.00; at p110β/p85α, more than 6.00; on p110δ/p85α, more than 6.00; at p110γ it was more than 7.00.

Turning to `Nc1nc2cc(-c3ccc4ncc(N[C@H]5CC[C@H](O)CC5)nc4c3)ccc2o1` [compound 128], the pIC50 is more than 7.00 at p110α/p85α, more than 5.00 on p110β/p85α, more than 7.00 on p110δ/p85α and more than 7.00 at p110γ.

On to `CC1CN(c2cnc3ccc(-c4ccc5oc(N)nc5c4)cc3n2)CC(C)N1` (stereo not drawn) [compound 131], for which the pIC50 at p110α/p85α, on p110β/p85α, on p110δ/p85α and at p110γ was more than 6.00 in each case.

`CN1CC(C(=O)N2CCC(Nc3ncnc4ccc(-c5ccc6oc(N)nc6c5)cc34)CC2)C1` [compound 138]: the pIC50 was more than 7.00 on p110α/p85α, more than 6.00 on p110β/p85α, more than 7.00 at p110δ/p85α and more than 6.00 at p110γ.

`CC(=O)NC1CCN(C(=O)c2cnc3ccc(-c4ccc5oc(N)nc5c4)cn23)CC1` [compound 147]: the pIC50 on p110α/p85α was more than 6.00; on p110β/p85α it was more than 5.00; on p110δ/p85α, more than 5.00; on p110γ, more than 5.00.

Take `CC1CN(c2cnc3ccc(-c4ccc5oc(N)nc5c4)cc3n2)CCN1` (stereo not drawn) [compound 149]: the pIC50 at p110α/p85α is more than 7.00; at p110β/p85α, more than 7.00; on p110δ/p85α, more than 5.00; on p110γ it was more than 6.00.

As for `CN1CCC(N(C)c2cnc3ccc(-c4ccc5oc(N)nc5c4)cc3n2)CC1` [compound 151], the pIC50 on p110α/p85α is more than 7.00; at p110β/p85α, more than 5.00; at p110δ/p85α it was more than 6.00; at p110γ, more than 5.00.

On to `CN1CCC(N(C)c2ncnc3ccc(-c4ccc5oc(N)nc5c4)cc23)CC1` [compound 155], for which the pIC50 was more than 7.00 on p110α/p85α, more than 7.00 on p110β/p85α, more than 6.00 at p110δ/p85α and more than 7.00 at p110γ.

Consider `Nc1nc2cc(-c3ccc4ncc(C(=O)N5CCN(CC6CC6)CC5)n4c3)ccc2o1` [compound 161], for which the pIC50 at p110α/p85α is more than 6.00; on p110β/p85α it was more than 5.00; at p110δ/p85α it was more than 5.00; at p110γ, more than 5.00.

Consider `Nc1nc2cc(-c3ccc4ncc(C(=O)N5CCC(N6CCOCC6)CC5)n4c3)ccc2o1` [compound 163], for which the pIC50 was more than 6.00 on p110α/p85α, more than 5.00 on p110β/p85α, more than 5.00 at p110δ/p85α and more than 5.00 at p110γ.

As to `CN(C)C1CCN(c2cnc3ccc(-c4ccc5oc(N)nc5c4)cc3n2)CC1` [compound 172], the negative logarithm of the IC50 (pIC50) on p110α/p85α is more than 7.00; on p110β/p85α, more than 7.00; at p110δ/p85α, more than 7.00; on p110γ, more than 6.00.

The record behind these values is US11547697B2, “Heterocyclic compounds and uses thereof” (MILLENNIUM PHARMACEUTICALS, INC., priority 2009, dated 2023).
